Experimental data: US9688666B2, “Lamivudine salts” (Tobira Therapeutics, Inc., priority 2013, dated 2017)

Key:
Type in all cases: physicochemical
[1] = Gravimetric vapor sorption (GVS), hygroscopicity; details: 25 degrees C, relative humidity 0% to 90% in 10% RH increments
Source text: A crystalline form can be characterized by gravimetric vapor sorption (GVS). A GVS plot can be a graph of weight gain or loss against relative humidity. The total weight gain or loss is often reported as a weight percent (wt %), the value of which allows for and includes an appropriate margin of error that can be represented by the symbol “±.” For example, a weight change of about 2.0±0.5% can refer to a range from about 2+0.5%, that is, 2.5%, to about […], that is, about 1.5%. Depending on the sample preparation technique, the calibration technique applied to the instrument, human operation variation, the nature of the particular instrument being used, and other factors known to the art, the appropriate margin of error for a weight gain or loss can be about ±2%, about ±1%, about ±0.75%, about ±0.5%, about ±0.25%, or less. Among other things, GVS can be useful for determining whether a crystalline form changes upon exposure to humidity.
Gravimetric vapor sorption plots were obtained on an ‘Iga Sorp’ vapor sorption balance manufactured by Hidden Analytical Instruments, which was calibrated according to manufacturer recommendations. Samples were dried by maintaining a 0% humidity until no additional weight change was measured. […] After equilibration, the weight change was measured, and the RH was then increased by 10% following the above-described equilibration procedure. […]

[2] = Storage stability at ambient temperature and humidity, XRPD before and after; details: stored in a cupboard at ambient temperature and humidity for 16 weeks
Procedure: A sample of lamivudine hydrochloride polymorph Form II was analyzed by XRPD, and then stored in a cupboard at ambient temperature and humidity for 16 weeks, after which the sample was re-analyzed by XRPD. FIG. 32 compares the XRPD pattern obtained before storage (top pattern) and after 16 weeks of storage (middle pattern) with the XRPD pattern of lamivudine hydrochloride polymorph Form I obtained by the method of Example 1 (bottom pattern).

[3] = Competitive slurry of Form I/Form II mixture, product examined by XRPD; details: 20 mg Form I + 20 mg Form II suspended in 400 μL acetone or 400 μL isopropanol, shaken at ambient temperature for 72 hours; same result in both cases
Procedure: A first mixture of 20 mg lamivudine hydrochloride polymorph Form I and 20 mg lamivudine hydrochloride polymorph Form II was suspended in 400 μL of acetone, and a second mixture of 20 mg lamivudine hydrochloride polymorph Form I and 20 mg lamivudine hydrochloride polymorph Form II was suspended in 400 μL isopropanol. Both mixtures were shaken at ambient temperature for 72 hours, after which the resulting product was examined by XRPD. In both cases, the resulting product an XRPD diffraction pattern substantially similar to that of FIG. 6.

Row | GVS reversible weight gain [1] | Structure (SMILES) | solid form stability on storage (XRPD) [2] | relative thermodynamic stability of polymorphs (form of product by XRPD) [3]
1 | ≤ 1% | Cl.Nc1ccn([C@@H]2CS[C@H](CO)O2)c(=O)n1 [listing 1 of 2 here] |  | 
2 |  | Cl.Nc1ccn([C@@H]2CS[C@H](CO)O2)c(=O)n1 [listing 2 of 2 here] | spontaneously converting to lamivudine hydrochloride polymorph Form I after 16 weeks of storage | less thermodynamically stable than, and transforming into, lamivudine hydrochloride polymorph Form I
